Data reported in patent US20090247624A1, “FORMULATIONS OF RADIOPROTECTIVE ALPHA BETA UNSATURATED ARYL SULFONES” (Onconova Therapeutics Inc., priority 2006, published 2009).

How the values were obtained:
HFL-1 cells = experiment: Radioprotective effects on cultured normal cells (colony count); format: cell-based, human; conditions: 2.5 to 20 micromolar for 24 hrs before 10 Gy or 15 Gy; colonies on test plates / control plates
Description: HFL-1 cells, which are normal diploid lung fibroblasts, were plated into 24 well dishes at a cell density of 3000 cells per 10 mm^2 in DMEM completed with 10% fetal bovine serum and antibiotics. The test compounds listed in Table 11 were added to the cells 24 hours later in select concentrations from 2.5 to 20 micromolar, inclusive, using DMSO as a solvent. Control cells were treated with DMSO alone. The cells were exposed to the test compound or DMSO for 24 hrs. The cells were then irradiated with either 10 Gy (gray) or 15 Gy of ionizing radiation (IR) using a J. L. Shepherd Mark I, Model 30-1 Irradiator equipped with ^137cesium as a source.
After irradiation, the medium on the test and control cells was removed and replaced with fresh growth medium without the test compounds or DMSO. The irradiated cells were incubated for 96 hours and duplicate wells were trypsinized and replated onto 100 mm^2 tissue culture dishes. The replated cells were grown under normal conditions with one change of fresh medium for 3 weeks. The number of colonies from each 100 mm^2 culture dish, which represents the number of surviving cells, was determined by staining the dishes as described below.
To visualize and count the colonies derived from the clonal outgrowth of individual radioprotected cells, the medium was removed and the plates were washed one time with room temperature phosphate buffered saline. The cells were stained with a 1:10 diluted Modified Giemsa staining solution (Sigma) for 20 minutes. The stain was removed, and the plates were washed with tap water. The plates were air dried, the number of colonies from each plate were counted and the average from duplicate plates was determined.
A “+” indicates radioprotective activity of between 2- and 4.5-fold at the concentrations tested. Fold protection was determined by dividing the average number of colonies from the test plates by the average number of colonies on the control plates.

C57 black mice = experiment: Protection of mice from radiation toxicity by pre-treatment; format: in vivo
Description: C57 black mice age 10-12 weeks (Taconic) were divided into two treatment groups of 10 mice each. One group, designated the “200×2” group, received intraperitoneal injections of 200 micrograms (E)-4-carboxystyryl-4-chlorobenzylsulfone dissolved in DMSO (a 10 mg/Kg dose, based on 20 g mice) 18 and 6 hours before irradiation with 8 Gy gamma radiation. The other group, designated “500×2,” received intraperitoneal injections of 500 micrograms (E)-4-carboxystyryl-4-chlorobenzylsulfone dissolved in DMSO (a 25 mg/Kg dose, based on 20 g mice) 18 and 6 hours before irradiation with 8 Gy gamma radiation. A control group of 16 animals received 8 Gy gamma radiation alone.

rodent species = conditions: after IP and IV administration to different rodent species; cited from earlier work
human = conditions: approximately 500 mg/kg iv continuously as 5 percent aqueous solution, one individual, four days; cited from earlier work
[1] = room temperature; cited from earlier work
[2] = “200×2” group: 10 mg/Kg i.p. 18 and 6 hours before 8 Gy gamma radiation
[3] = “500×2” group: 25 mg/Kg i.p. 18 and 6 hours before 8 Gy gamma radiation

Compound	Activity (radioprotection, fold protection) (HFL-1 cells)	further results
(Z)-Styryl-(E)-2-methoxy-4-ethoxystyrylsulfone [Compound 11]	+ (A “+” indicates radioprotective activity of between 2- and 4.5-fold at the concentrations tested)	–
O=C(O)c1ccc(/C=C/S(=O)(=O)Cc2ccc(Cl)cc2)cc1 [Compound 13, (E)-4-Carboxystyryl-4-chlorobenzylsulfone]	+ (A “+” indicates radioprotective activity of between 2- and 4.5-fold at the concentrations tested)	maximum mortality rate by day 40 (C57 black mice; [2]): approximately 60%; mice dead at day 20 (C57 black mice; [2]): about 50%; maximum mortality rate by day 40 (C57 black mice; [3]): about 50%; mice dead at day 20 (C57 black mice; [3]): about 30%
(E)-2,4,6-Trimethoxystyryl-4-methoxybenzylsulfone [Compound 2]	+ (A “+” indicates radioprotective activity of between 2- and 4.5-fold at the concentrations tested)	–
(E)-4-Fluorostyryl-4-cyanobenzylsulfone [Compound 6]	+ (A “+” indicates radioprotective activity of between 2- and 4.5-fold at the concentrations tested)	–
(E)-4-Fluorostyryl-4-chlorophenylsulfone [Compound 10]	+ (A “+” indicates radioprotective activity of between 2- and 4.5-fold at the concentrations tested)	–
O=S(=O)(/C=C/c1ccoc1)Cc1ccc(Cl)cc1Cl [Compound 8, (E)-3-Furanethenyl-2,4-dichlorobenzylsulfone]	+ (A “+” indicates radioprotective activity of between 2- and 4.5-fold at the concentrations tested)	–
(E)-4-Fluorostyryl-4-trifluoromethylbenzylsulfone [Compound 5]	+ (A “+” indicates radioprotective activity of between 2- and 4.5-fold at the concentrations tested)	–
Hydroxypropyl-B-Cyclodextrin [HPCD]	–	toxicity (rodent species): non-toxic; adverse clinical effects (human): no adverse clinical effects were reported; solubility in water [1]: greater than 500 mg/ml
O=S(=O)(/C=C/c1ccc(F)cc1)Cc1ccc(Cl)cc1 [Compound 1, (E)-4-Fluorostyryl-4-chlorobenzylsulfone]	+ (A “+” indicates radioprotective activity of between 2- and 4.5-fold at the concentrations tested)	–
O=S(=O)(/C=C\c1ccc(F)cc1)Cc1ccc(Cl)cc1 [Compound 7, (Z)-4-Fluorostyryl-4-chlorobenzylsulfone]	+ (A “+” indicates radioprotective activity of between 2- and 4.5-fold at the concentrations tested)	–
